This is an account of results in patent US10040781B2, “Tank-binding kinase inhibitor compounds” (Gilead Sciences, Inc., priority 2014, dated 2018).

One test addresses TBK1 (Homo sapiens (Human), UniProt Q9UHD2). In words: TBK1 TR-FRET enzymatic assay.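 Further: phosphorylation of a biotinylated Ser/Thr peptide by purified full-length recombinant TBK1, read by TR-FRET after 240 min at 25 °C, IC50 is the geometric mean of at least four runs.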
Another test deals with IKKε (Homo sapiens (Human), UniProt Q14164). In words: IKKε TR-FRET enzymatic assay. The class given is biochemical. The conditions noted are these: read-out: IKKe IC50.
The next test concerns the target hJAK2 (Homo sapiens (Human), UniProt O60674). In words: hJAK2 LANCE TR-FRET enzymatic assay. The format is biochemical. The settings on record: read-out: JAK2 IC50.
Where [1] appears, read: TR-FRET, 2×Km ATP, geometric mean of minimum four determinations.

Like-named read-outs stand apart in the source and are kept apart here.

hJAK2, sequence (O60674 whole entry): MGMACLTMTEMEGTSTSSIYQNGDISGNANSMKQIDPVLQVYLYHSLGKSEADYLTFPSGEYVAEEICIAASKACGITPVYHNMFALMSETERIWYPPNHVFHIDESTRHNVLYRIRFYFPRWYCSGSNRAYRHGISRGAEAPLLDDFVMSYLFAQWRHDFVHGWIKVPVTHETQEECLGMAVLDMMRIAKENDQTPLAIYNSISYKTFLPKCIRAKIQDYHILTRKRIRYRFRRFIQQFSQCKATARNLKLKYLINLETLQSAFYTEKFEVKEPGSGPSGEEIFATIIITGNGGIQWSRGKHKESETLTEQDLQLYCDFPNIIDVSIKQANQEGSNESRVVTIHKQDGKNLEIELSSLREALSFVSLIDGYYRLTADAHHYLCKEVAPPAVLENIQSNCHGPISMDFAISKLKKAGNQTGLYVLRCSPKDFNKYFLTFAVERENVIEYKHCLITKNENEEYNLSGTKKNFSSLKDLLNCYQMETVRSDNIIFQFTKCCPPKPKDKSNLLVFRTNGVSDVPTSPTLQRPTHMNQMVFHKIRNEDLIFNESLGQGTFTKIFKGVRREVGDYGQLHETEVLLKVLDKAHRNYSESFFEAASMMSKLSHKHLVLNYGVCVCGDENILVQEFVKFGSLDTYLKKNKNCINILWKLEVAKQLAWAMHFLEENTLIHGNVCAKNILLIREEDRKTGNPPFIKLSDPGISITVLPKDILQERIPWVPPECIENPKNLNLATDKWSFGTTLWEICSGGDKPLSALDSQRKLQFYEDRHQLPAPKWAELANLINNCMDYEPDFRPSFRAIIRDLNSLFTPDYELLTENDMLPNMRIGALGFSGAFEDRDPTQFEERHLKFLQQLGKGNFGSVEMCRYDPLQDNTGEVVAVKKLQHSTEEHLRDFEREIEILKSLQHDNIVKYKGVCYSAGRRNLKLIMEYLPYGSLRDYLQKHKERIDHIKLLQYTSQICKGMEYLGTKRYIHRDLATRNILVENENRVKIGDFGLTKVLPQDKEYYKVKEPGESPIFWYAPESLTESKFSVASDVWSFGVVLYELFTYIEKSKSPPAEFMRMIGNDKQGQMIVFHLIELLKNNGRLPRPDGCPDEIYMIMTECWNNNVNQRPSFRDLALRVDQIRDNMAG
IKKε, sequence (Q14164 whole entry): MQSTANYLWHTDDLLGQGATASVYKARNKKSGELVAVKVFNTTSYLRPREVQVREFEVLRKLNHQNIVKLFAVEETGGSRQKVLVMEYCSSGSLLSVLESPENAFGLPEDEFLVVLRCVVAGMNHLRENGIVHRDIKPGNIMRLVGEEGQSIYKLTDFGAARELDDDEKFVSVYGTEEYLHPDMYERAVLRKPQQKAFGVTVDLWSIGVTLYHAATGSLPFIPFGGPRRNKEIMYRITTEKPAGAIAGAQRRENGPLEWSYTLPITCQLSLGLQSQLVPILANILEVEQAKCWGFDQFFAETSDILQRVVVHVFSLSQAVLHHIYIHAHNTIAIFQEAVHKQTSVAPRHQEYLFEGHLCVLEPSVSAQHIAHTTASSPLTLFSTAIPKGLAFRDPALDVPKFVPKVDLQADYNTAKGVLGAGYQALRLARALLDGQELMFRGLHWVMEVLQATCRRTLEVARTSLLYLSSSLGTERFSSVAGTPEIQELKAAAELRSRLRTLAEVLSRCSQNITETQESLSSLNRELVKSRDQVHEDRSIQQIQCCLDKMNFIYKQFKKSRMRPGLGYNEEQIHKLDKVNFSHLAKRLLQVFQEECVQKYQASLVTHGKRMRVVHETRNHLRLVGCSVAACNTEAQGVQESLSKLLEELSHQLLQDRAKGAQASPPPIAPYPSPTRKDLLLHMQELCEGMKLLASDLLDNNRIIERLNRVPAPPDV
TBK1, sequence (Q9UHD2 whole entry): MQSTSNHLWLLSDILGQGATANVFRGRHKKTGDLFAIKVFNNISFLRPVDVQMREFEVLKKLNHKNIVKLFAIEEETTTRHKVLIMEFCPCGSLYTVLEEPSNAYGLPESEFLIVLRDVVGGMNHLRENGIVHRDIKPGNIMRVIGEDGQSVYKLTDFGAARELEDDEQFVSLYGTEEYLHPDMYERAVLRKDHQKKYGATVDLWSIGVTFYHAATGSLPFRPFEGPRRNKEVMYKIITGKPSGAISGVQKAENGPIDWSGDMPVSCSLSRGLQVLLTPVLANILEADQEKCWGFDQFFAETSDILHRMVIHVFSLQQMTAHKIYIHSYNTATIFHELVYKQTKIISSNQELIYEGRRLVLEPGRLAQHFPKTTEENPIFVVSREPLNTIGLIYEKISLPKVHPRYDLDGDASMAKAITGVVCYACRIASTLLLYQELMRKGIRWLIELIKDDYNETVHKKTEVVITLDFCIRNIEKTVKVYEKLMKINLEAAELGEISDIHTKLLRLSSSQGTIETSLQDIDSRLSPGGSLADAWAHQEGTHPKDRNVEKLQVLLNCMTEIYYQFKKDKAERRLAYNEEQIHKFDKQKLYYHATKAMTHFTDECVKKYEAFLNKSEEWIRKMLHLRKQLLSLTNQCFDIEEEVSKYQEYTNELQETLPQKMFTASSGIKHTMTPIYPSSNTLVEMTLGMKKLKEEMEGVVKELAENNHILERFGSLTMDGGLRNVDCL

`N#Cc1cc(-c2ncnc(Nc3ccc(N4CCN(C5COC5)CC4)cc3)n2)cc(F)c1OC1CCS(=O)(=O)CC1` [Example 271, 2-((1,1-dioxidotetrahydro-2H-thiopyran-4-yl)oxy)-3-fluoro-5-(4-((4-(4-(oxetan-3-yl)piperazin-1-yl)phenyl)amino)-1,3,5-triazin-2-yl)benzonitrile]: the IC50 against TBK1 was 18 nM; on IKKε, 110 nM; at hJAK2, ≥ 1000 nM.
The like results for `N#Cc1cc(-c2ncnc(Nc3ccc(N4CCN(C5COC5)CC4)cc3)n2)ccc1O[C@@H]1CCN(C(=O)C(F)F)C1` [Example 96, (R)-2-((1-(2,2-difluoroacetyl)pyrrolidin-3-yl)oxy)-5-(4-((4-(4-(oxetan-3-yl)piperazin-1-yl)phenyl)amino)-1,3,5-triazin-2-yl)benzonitrile] were, in that order, 21 nM, 91 nM and 560 nM.
Consider `C[C@H](O)C(=O)N1CC[C@H](Oc2ccc(-c3ncnc(Nc4ccc(N5CCO[C@H](C(N)=O)C5)cc4)n3)cc2C#N)[C@H](F)C1` [Example 316, (S)-4-(4-((4-(3-cyano-4-(((3R,4S)-3-fluoro-1-((S)-2-hydroxypropanoyl)piperidin-4-yl)oxy)phenyl)-1,3,5-triazin-2-yl)amino)phenyl)morpholine-2-carboxamide], for which the values for the IC50 against TBK1, at IKKε and on hJAK2 were 3 nM, 2 nM and 347 nM, respectively.
Turning to `C[C@H](O)C(=O)N1CC[C@@H](Oc2ccc(-c3ncnc(Nc4ccc(N5CCN(C6COC6)CC5)cc4)n3)cc2C#N)C[C@H]1C` [Example 185, 2-(((2R,4R)-1-((S)-2-hydroxypropanoyl)-2-methylpiperidin-4-yl)oxy)-5-(4-((4-(4-(oxetan-3-yl)piperazin-1-yl)phenyl)amino)-1,3,5-triazin-2-yl)benzonitrile], the IC50 was 94 nM on TBK1, 190 nM on IKKε and ≥ 1000 nM on hJAK2.
The corresponding values for `N#Cc1cc(-c2ncnc(Nc3ccc(N4CCN(C5COC5)CC4)cc3)n2)cc(F)c1O[C@H]1CCN(C(=O)CO)C[C@H]1F` [Example 329, 3-fluoro-2-(((3R,4S)-3-fluoro-1-(2-hydroxyacetyl)piperidin-4-yl)oxy)-5-(4-((4-(4-(oxetan-3-yl)piperazin-1-yl)phenyl)amino)-1,3,5-triazin-2-yl)benzonitrile] are 4 nM, 3 nM and 648 nM.
Consider `COc1ccc(-c2ncnc(Nc3ccc(N4CCN(C5COC5)CC4)cc3)n2)cc1C#N` [Example 104, 2-methoxy-5-(4-((4-(4-(oxetan-3-yl)piperazin-1-yl)phenyl)amino)-1,3,5-triazin-2-yl)benzonitrile], for which the values for the IC50 against TBK1, on IKKε and on hJAK2 were 42 nM, 215 nM and 328 nM, respectively.
In the case of `Cc1cc(Nc2ncnc(-c3ccc(O[C@H]4CCN(C(=O)CCO)C[C@H]4F)c(C#N)c3)n2)ccc1N1CCN(C2COC2)CC1` [Example 533, 2-(((3R,4S)-3-fluoro-1-(3-hydroxypropanoyl)piperidin-4-yl)oxy)-5-(4-((3-methyl-4-(4-(oxetan-3-yl)piperazin-1-yl)phenyl)amino)-1,3,5-triazin-2-yl)benzonitrile], the figures for the IC50 against TBK1, on IKKε (setting [1]) and on hJAK2 were 4 nM, 7 nM and 88 nM, respectively.
For the molecule `N#Cc1cc(-c2ncnc(Nc3ccc(N4CCN(C5COC5)CC4)cc3)n2)ccc1O[C@H]1CCN(C(=O)c2ccc[nH]2)C[C@H]1F` [Example 141, 2-(((3R,4S)-3-fluoro-1-(1H-pyrrole-2-carbonyl)piperidin-4-yl)oxy)-5-(4-((4-(4-(oxetan-3-yl)piperazin-1-yl)phenyl)amino)-1,3,5-triazin-2-yl)benzonitrile], the IC50 on TBK1 came out at 3 nM; at IKKε, 2 nM; at hJAK2 it was 356 nM.
Consider `C[C@H](O)C(=O)N1CC[C@H](Oc2ccc(-c3ncnc(Nc4ccc(N5CCO[C@@H](CO)C5)cc4)n3)cc2C#N)C(F)(F)C1` [Example 460, 2-(((S)-3,3-difluoro-1-((S)-2-hydroxypropanoyl)piperidin-4-yl)oxy)-5-(4-((4-((R)-2-(hydroxymethyl)morpholino)phenyl)amino)-1,3,5-triazin-2-yl)benzonitrile], for which the concentration for half-maximal inhibition (IC50) was 2 nM against TBK1, 1 nM at IKKε (setting [1]) and 131 nM at hJAK2.
The corresponding values for `C[C@H](O)C(=O)N1CC[C@H](Oc2ccc(-c3ncnc(Nc4ccc5c(c4)CNC5)n3)cc2C#N)[C@H](F)C1` [Example 545, 2-(((3R,4S)-3-fluoro-1-((S)-2-hydroxypropanoyl)piperidin-4-yl)oxy)-5-(4-(isoindolin-5-ylamino)-1,3,5-triazin-2-yl)benzonitrile] are 3 nM, 1 nM and 659 nM.
With `N#Cc1cc(-c2ncnc(Nc3cnn(CC(F)F)c3)n2)ccc1O[C@H]1CCN(C(=O)CO)C[C@H]1F` [Example 361, 5-(4-((1-(2,2-difluoroethyl)-1H-pyrazol-4-yl)amino)-1,3,5-triazin-2-yl)-2-(((3R,4S)-3-fluoro-1-(2-hydroxyacetyl)piperidin-4-yl)oxy)benzonitrile], the IC50 came out at 2 nM on TBK1, 1 nM at IKKε and 317 nM at hJAK2.
Regarding `CC1(C)C(=O)Nc2ccc(Nc3ncnc(-c4ccc(OC5CCOCC5)c(C#N)c4)n3)cc21` [Example 278, 5-(4-((3,3-dimethyl-2-oxoindolin-5-yl)amino)-1,3,5-triazin-2-yl)-2-((tetrahydro-2H-pyran-4-yl)oxy)benzonitrile], the values for the IC50 against TBK1, at IKKε and at hJAK2 were 4 nM, 9 nM and 541 nM, respectively.
As to `N#Cc1cc(-c2ncnc(Nc3ccc(C(=O)NC4COC4)cc3)n2)ccc1OC1CCOCC1` [Example 75, 4-((4-(3-cyano-4-((tetrahydro-2H-pyran-4-yl)oxy)phenyl)-1,3,5-triazin-2-yl)amino)-N-(oxetan-3-yl)benzamide], the IC50 amounted to 3 nM at TBK1, 12 nM at IKKε and 899 nM on hJAK2.
As to `C[C@@H](O)C(=O)N1CCC(Oc2ccc(-c3ncnc(Nc4ccc(N5CCN(C6COC6)CC5)cc4)n3)cc2C#N)C(F)(F)C1` (stereo partly drawn) [Example 157, 2-((3,3-difluoro-1-((R)-2-hydroxypropanoyl)piperidin-4-yl)oxy)-5-(4-((4-(4-(oxetan-3-yl)piperazin-1-yl)phenyl)amino)-1,3,5-triazin-2-yl)benzonitrile], the IC50 was found to be 3 nM at TBK1, 14 nM on IKKε and 188 nM at hJAK2.
Regarding `N#Cc1cc(-c2ncnc(Nc3ccc(N4CCOCC4)cc3)n2)ccc1O[C@@H]1CCNC1` [Example 80], the IC50 against TBK1 was found to be 19 nM; at IKKε it was 37 nM; at hJAK2, 389 nM.
The like results for `N#Cc1cc(-c2ncnc(Nc3ccc(N4CCN(C5COC5)CC4)cc3)n2)ccc1O[C@H]1CN(C(=O)CO)CC1(F)F` (single isomer, unassigned) [Example 195] were, in that order, 2 nM, 10 nM and 90 nM.
Turning to `C[C@H](CO)C(=O)N1CC[C@H](Oc2ccc(-c3ncnc(Nc4ccc(N5CCN(C6COC6)CC5)cc4)n3)cc2C#N)[C@H](F)C1` [Example 124, 2-(((3R,4S)-3-fluoro-1-((R)-3-hydroxy-2-methylpropanoyl)piperidin-4-yl)oxy)-5-(4-((4-(4-(oxetan-3-yl)piperazin-1-yl)phenyl)amino)-1,3,5-triazin-2-yl)benzonitrile], the IC50 on TBK1 worked out at 15 nM; at IKKε, 54 nM; at hJAK2, 676 nM.
Regarding `N#Cc1cc(-c2ncnc(Nc3ccc(N4CCN(C5COC5)CC4)cc3)n2)ccc1O[C@H]1CCN(C(=O)NCCO)C[C@H]1F` [Example 429, (3R,4S)-4-(2-cyano-4-(4-((4-(4-(oxetan-3-yl)piperazin-1-yl)phenyl)amino)-1,3,5-triazin-2-yl)phenoxy)-3-fluoro-N-(2-hydroxyethyl)piperidine-1-carboxamide], the IC50 against TBK1 was 12 nM; on IKKε (setting [1]), 33 nM; at hJAK2, 601 nM.
Regarding `N#Cc1cc(-c2ncnc(Nc3ccc(N4CCN(C5COC5)CC4)cc3)n2)ccc1O[C@H]1CCN(C(=O)[C@@H](O)CO)C[C@H]1F` [Example 584, 2-(((3R,4S)-1-((S)-2,3-dihydroxypropanoyl)-3-fluoropiperidin-4-yl)oxy)-5-(4-((4-(4-(oxetan-3-yl)piperazin-1-yl)phenyl)amino)-1,3,5-triazin-2-yl)benzonitrile], the IC50 against TBK1 was 2 nM; on IKKε (setting [1]) it was 1 nM; on hJAK2, 433 nM.
In the case of `N#Cc1cc(-c2ncnc(Nc3ccc(N4CCN(C5COC5)CC4)cc3)n2)ccc1O[C@H]1CCN(C(=O)[C@@H]2CSC(=O)N2)CC1(F)F` [Example 520, 2-(((S)-3,3-difluoro-1-((R)-2-oxothiazolidine-4-carbonyl)piperidin-4-yl)oxy)-5-(4-((4-(4-(oxetan-3-yl)piperazin-1-yl)phenyl)amino)-1,3,5-triazin-2-yl)benzonitrile], the IC50 on TBK1 is 2 nM; on IKKε (setting [1]), 1 nM; at hJAK2, 177 nM.
In the case of `C[C@H](O)C(=O)N1CC[C@H](Oc2ccc(-c3ncnc(Nc4ccc(N5CCO[C@@H](C(N)=O)C5)cc4)n3)cc2C#N)[C@H](F)C1` [Example 315, (R)-4-(4-((4-(3-cyano-4-(((3R,4S)-3-fluoro-1-((S)-2-hydroxypropanoyl)piperidin-4-yl)oxy)phenyl)-1,3,5-triazin-2-yl)amino)phenyl)morpholine-2-carboxamide], the IC50 on TBK1 worked out at 9 nM; at IKKε it was 3 nM; on hJAK2, 564 nM.
For `Cc1cc(Nc2ncnc(-c3ccc(O[C@H]4CCN(C(=O)CC#N)C[C@H]4F)c(C#N)c3)n2)ccc1C1CCN(C)CC1` [Example 488, 2-(((3R,4S)-1-(2-cyanoacetyl)-3-fluoropiperidin-4-yl)oxy)-5-(4-((3-methyl-4-(1-methylpiperidin-4-yl)phenyl)amino)-1,3,5-triazin-2-yl)benzonitrile], the IC50 against TBK1 stood at 4 nM; at IKKε (setting [1]) it was 1 nM; at hJAK2 it was 131 nM.
